Assay results: PubChem BioAssay (NCI)
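Growth conditions: 96-well plates. Treatment: test compound, 48 hours, 5 concentrations. Analysis: linear interpolation between bracketing concentrations; unreached endpoints set to highest concentration. Here, GI50 denotes the concentration required for 50% inhibition of growth. TGI: total growth inhibition.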

Legend:
Test in all cases: NCI-60 cell line screen, 48 h
EKVX NSCLC = test system: EKVX NSCLC
IGROV1 ovarian = test system: IGROV1 ovarian
NCI-H23 lung = test system: NCI-H23 lung
OVCAR-8 ovarian = test system: OVCAR-8 ovarian
HCT-15 colon = test system: HCT-15 colon
DU-145 prostate = test system: DU-145 prostate
TK-10 renal = test system: TK-10 renal
A549 NSCLC = test system: A549 NSCLC
SK-MEL-28 melanoma = test system: SK-MEL-28 melanoma
OVCAR-5 ovarian = test system: OVCAR-5 ovarian
COLO 205 colon = test system: COLO 205 colon
SN12C renal = test system: SN12C renal
HOP-92 NSCLC = test system: HOP-92 NSCLC
MDA-MB-435 = test system: MDA-MB-435
SNB-19 CNS = test system: SNB-19 CNS
SF-268 CNS = test system: SF-268 CNS
U251 CNS = test system: U251 CNS
SNB-75 CNS = test system: SNB-75 CNS
SK-MEL-5 melanoma = test system: SK-MEL-5 melanoma
HL-60(TB) leukemia = test system: HL-60(TB) leukemia
HOP-62 NSCLC = test system: HOP-62 NSCLC
KM12 colon = test system: KM12 colon
NCI-H522 lung = test system: NCI-H522 lung
HT29 colon = test system: HT29 colon
NCI-H460 lung = test system: NCI-H460 lung
SF-539 CNS = test system: SF-539 CNS
HCC-2998 colon = test system: HCC-2998 colon
UACC-257 melanoma = test system: UACC-257 melanoma
ACHN renal = test system: ACHN renal
M14 melanoma = test system: M14 melanoma
CCRF-CEM leukemia = test system: CCRF-CEM leukemia
MOLT-4 leukemia = test system: MOLT-4 leukemia
RPMI-8226 leukemia = test system: RPMI-8226 leukemia
SR leukemia = test system: SR leukemia
T-47D breast = test system: T-47D breast
HCT-116 colon = test system: HCT-116 colon
MDA-MB-468 breast = test system: MDA-MB-468 breast
MCF7 breast = test system: MCF7 breast
OVCAR-3 ovarian = test system: OVCAR-3 ovarian
MALME-3M melanoma = test system: MALME-3M melanoma
HS 578T breast = test system: HS 578T breast
OVCAR-4 ovarian = test system: OVCAR-4 ovarian
786-0 renal = test system: 786-0 renal
A498 renal = test system: A498 renal
NCI-H226 lung = test system: NCI-H226 lung
SK-MEL-2 melanoma = test system: SK-MEL-2 melanoma
LOX IMVI melanoma = test system: LOX IMVI melanoma
PC-3 prostate = test system: PC-3 prostate
SF-295 CNS = test system: SF-295 CNS
BT-549 breast = test system: BT-549 breast
UO-31 renal = test system: UO-31 renal
RXF 393 renal = test system: RXF 393 renal
K-562 leukemia = test system: K-562 leukemia
CAKI-1 renal = test system: CAKI-1 renal
SK-OV-3 ovarian = test system: SK-OV-3 ovarian
SW-620 colon = test system: SW-620 colon
MDA-MB-231 breast = test system: MDA-MB-231 breast
UACC-62 melanoma = test system: UACC-62 melanoma

`CC1=C(C(=O)Nc2ccccc2)C(c2ccc3ccccc3c2)n2c(nc3ccccc32)N1` (stereo unspecified) was tested, and the GI50 (EKVX NSCLC) was 16 µM, the TGI (EKVX NSCLC) was 46.2 µM and the GI50 (IGROV1 ovarian) was 25.8 µM. For the same compound, the TGI (IGROV1 ovarian) was 85.7 µM, the GI50 (NCI-H23 lung) was 27.7 µM and the TGI (NCI-H23 lung) was greater than 100 µM. The GI50 (OVCAR-8 ovarian) was 16.9 µM, the TGI (OVCAR-8 ovarian) was 35.9 µM and the GI50 (HCT-15 colon) was 16.4 µM. The TGI (HCT-15 colon) was 56.2 µM, the GI50 (DU-145 prostate) was 18.2 µM and the TGI (DU-145 prostate) was 62.3 µM. For the same compound, the GI50 (TK-10 renal) was 19.3 µM, the TGI (TK-10 renal) was 48.6 µM and the GI50 (A549 NSCLC) was 13.5 µM. It also gave a TGI (A549 NSCLC) of 33.2 µM, a GI50 (SK-MEL-28 melanoma) of 21.2 µM and a TGI (SK-MEL-28 melanoma) of 56.4 µM. It also gave a GI50 (OVCAR-5 ovarian) of 28 µM, a TGI (OVCAR-5 ovarian) of 95.6 µM and a GI50 (COLO 205 colon) of 26.5 µM. For the same compound, the TGI (COLO 205 colon) was greater than 100 µM, the GI50 (SN12C renal) was 17.1 µM and the TGI (SN12C renal) was 40.2 µM. The GI50 (HOP-92 NSCLC) was 15.3 µM, the TGI (HOP-92 NSCLC) was 36.5 µM and the GI50 (MDA-MB-435) was 41.6 µM. The TGI (MDA-MB-435) was greater than 100 µM, the GI50 (SNB-19 CNS) was 22.7 µM and the TGI (SNB-19 CNS) was 59.2 µM. The GI50 (SF-268 CNS) was 27.3 µM, the TGI (SF-268 CNS) was greater than 100 µM and the GI50 (U251 CNS) was 16.3 µM. For the same compound, the TGI (U251 CNS) was 32.5 µM, the GI50 (SNB-75 CNS) was 10.4 µM and the TGI (SNB-75 CNS) was 30.5 µM. It also gave a GI50 (SK-MEL-5 melanoma) of 58.6 µM, a TGI (SK-MEL-5 melanoma) greater than 100 µM and a GI50 (HL-60(TB) leukemia) of 13.7 µM. It also gave a TGI (HL-60(TB) leukemia) greater than 100 µM, a GI50 (HOP-62 NSCLC) of 15.4 µM and a TGI (HOP-62 NSCLC) of 31.6 µM. The GI50 (KM12 colon) was 31.9 µM, the TGI (KM12 colon) was greater than 100 µM and the GI50 (NCI-H522 lung) was 18.1 µM. It also gave a TGI (NCI-H522 lung) of 45.7 µM, a GI50 (HT29 colon) of 24.4 µM and a TGI (HT29 colon) of 69.2 µM. It also gave a GI50 (NCI-H460 lung) of 15 µM, a TGI (NCI-H460 lung) of 33.6 µM and a GI50 (SF-539 CNS) of 15.5 µM. For the same compound, the TGI (SF-539 CNS) was 30.4 µM, the GI50 (HCC-2998 colon) was 34 µM and the TGI (HCC-2998 colon) was greater than 100 µM. For the same compound, the GI50 (UACC-257 melanoma) was 67.1 µM, the TGI (UACC-257 melanoma) was greater than 100 µM and the GI50 (ACHN renal) was 17 µM. It also gave a TGI (ACHN renal) of 35.3 µM, a GI50 (M14 melanoma) of 33.4 µM and a TGI (M14 melanoma) greater than 100 µM. For the same compound, the GI50 (CCRF-CEM leukemia) was 8.63 µM, the TGI (CCRF-CEM leukemia) was greater than 100 µM and the GI50 (MOLT-4 leukemia) was 5.71 µM. For the same compound, the TGI (MOLT-4 leukemia) was 72 µM, the GI50 (RPMI-8226 leukemia) was 20 µM and the TGI (RPMI-8226 leukemia) was greater than 100 µM. The GI50 (SR leukemia) was 22 µM, the TGI (SR leukemia) was greater than 100 µM and the GI50 (T-47D breast) was 58.5 µM. It also gave a TGI (T-47D breast) greater than 100 µM, a GI50 (HCT-116 colon) of 13.4 µM and a TGI (HCT-116 colon) of 33.1 µM. For the same compound, the GI50 (MDA-MB-468 breast) was 14.1 µM, the TGI (MDA-MB-468 breast) was 35.1 µM and the GI50 (MCF7 breast) was 9.12 µM. For the same compound, the TGI (MCF7 breast) was 27.7 µM, the GI50 (OVCAR-3 ovarian) was 16.4 µM and the TGI (OVCAR-3 ovarian) was 31.9 µM. For the same compound, the GI50 (MALME-3M melanoma) was 18.3 µM, the TGI (MALME-3M melanoma) was 40.3 µM and the GI50 (HS 578T breast) was 15.6 µM. For the same compound, the TGI (HS 578T breast) was 57.2 µM, the GI50 (OVCAR-4 ovarian) was 15.4 µM and the TGI (OVCAR-4 ovarian) was 45.3 µM. For the same compound, the GI50 (786-0 renal) was 19.6 µM, the TGI (786-0 renal) was 38.6 µM and the GI50 (A498 renal) was 23.3 µM. It also gave a TGI (A498 renal) of 63.3 µM, a GI50 (NCI-H226 lung) of 12.9 µM and a TGI (NCI-H226 lung) of 34.8 µM. It also gave a GI50 (SK-MEL-2 melanoma) of 22.1 µM, a TGI (SK-MEL-2 melanoma) of 71.5 µM and a GI50 (LOX IMVI melanoma) of 14.3 µM. It also gave a TGI (LOX IMVI melanoma) of 31 µM, a GI50 (PC-3 prostate) of 12.4 µM and a TGI (PC-3 prostate) of 31.4 µM. For the same compound, the GI50 (SF-295 CNS) was 17 µM, the TGI (SF-295 CNS) was 37.6 µM and the GI50 (BT-549 breast) was 28 µM. The TGI (BT-549 breast) was greater than 100 µM, the GI50 (UO-31 renal) was 12.6 µM and the TGI (UO-31 renal) was 39.9 µM. It also gave a GI50 (RXF 393 renal) of 11.8 µM, a TGI (RXF 393 renal) of 40.5 µM and a GI50 (K-562 leukemia) of 7.06 µM. It also gave a TGI (K-562 leukemia) greater than 100 µM, a GI50 (CAKI-1 renal) of 19.2 µM and a TGI (CAKI-1 renal) of 56.3 µM. The GI50 (SK-OV-3 ovarian) was 21.5 µM, the TGI (SK-OV-3 ovarian) was 85.7 µM and the GI50 (SW-620 colon) was 22.3 µM. It also gave a TGI (SW-620 colon) greater than 100 µM, a GI50 (MDA-MB-231 breast) of 20.4 µM and a TGI (MDA-MB-231 breast) of 41.5 µM. The GI50 (UACC-62 melanoma) was 20.3 µM and the TGI (UACC-62 melanoma) was 63.5 µM.
